A melting point compilation (Tetko et al.; mined from patent text by program, amines drawn as free bases though some values may be those of a salt)

melting point [°C] | SMILES
139 to 142 | O=C(Cl)c1sc2ccc(OCc3ccccc3)cc2c1Cl
122 to 123 | COC(=O)Cc1nc(-c2ccccc2)c2cc(Cl)ccc2n1
203 to 205 | O=C(O)c1cnc2ccc(Cc3ccccc3)cc2c1
259 to 260 | COc1ccc2c(c1)c(-c1cc3c(C(=O)N4CCOCC4)ccnc3[nH]1)cn2C
56 to 60 | CC(C)c1ccc(CCOc2ccnc3c(F)cccc23)cc1
257 to 259 | COc1cccc(C(=O)Nc2ccc(Cn3cnc(O)c3C(N)=O)cc2)c1
205 to 208 | CC(C)(C)c1cc(N(C(=O)CCC(=O)O)c2ccccc2)cc(C(C)(C)C)c1O
274 to 275 | O=c1[nH]c2ccccc2c(=O)n1Cc1ccc(Cl)c(Cl)c1
153 to 154 | CN(c1cccc2cc(-c3nc(CCl)cs3)[nH]c12)S(=O)(=O)c1cccs1
191 to 194 | NS(=O)(=O)c1cc(C(=O)O)cc(NC/C=C/CBr)c1Oc1ccccc1
128 to 129 | Cc1cc(C)cc(COCC(NC(=O)c2ccccc2)C(c2ccccc2)c2ccccc2)c1 (stereo not drawn)
234 to 236 | O=C1NC(=S)S/C1=C\c1ccccc1Nc1cccc(C(F)(F)F)c1
167 to 168 | O=C(O)c1ccccc1Sc1ccc(F)cc1[N+](=O)[O-]
201 to 203 | O=c1c(O)c(-c2ccc[nH]2)oc2ccccc12
107 to 109 | CCOC(=O)Cc1ccc(NC(=O)Nc2ccccc2OC)cc1
222 to 223 | CC(=O)Nc1ccc(/C=C/C(=O)NCC(=O)N(C)c2ccc(Cl)c(CBr)c2Cl)cn1
236 to 238 | NC(=O)c1cnn2c(-c3ccccc3)ccnc12
288 to 290 | O=C(O)c1oc(=O)c2ncccc2c1-c1ccccc1
173 to 175 | COc1ccc2c(c1)cc(C(=O)O)n2C(C)=O

melting point [°C] | SMILES
170 to 171 | Nc1nccc(-c2cn(-c3ccccc3)nc2-c2ccc(F)cc2)n1
> 300 | COc1ccccc1NC=C1C(=O)N(c2ccc(C(=O)O)cc2)N=C1C
66 to 67 | COc1ccc(Cc2cc(OC)c(OC)c(OC)c2)cc1
192 | CC1=C(Cl)C(c2ccccc2)C([N+](=O)[O-])=C(C)N1 (stereo not drawn)
129 to 131 | COc1ccc(N2C(=O)C(=O)N(c3ccccc3)C2=O)cc1
122 to 124 | Nc1c(C(=O)c2ccccc2)oc2ccccc12
185 to 186 | O=S(=O)(Cc1n[nH]c(-c2ccco2)n1)c1ccccc1
245 to 247 | NC(=O)c1cc(-c2ccnc(Nc3cccc(Cl)c3)n2)ccn1
116 to 117 | N=C(N)NCCc1ccc(OCCC2Oc3ccccc3N(Cc3cc(Cl)cc(Cl)c3)C2=O)cc1 (stereo not drawn)
126 to 128 | CSc1ccc2cc(Cc3ccccc3)cc(CCNC(C)=O)c2c1
180 to 181 | Oc1cccc(-c2csc(-c3cccnc3)n2)c1
79 to 81 | O=C(O)CCCCCOC(=O)n1c(-c2cscn2)nc2ccccc21
138 | CC1C(=O)N(c2ccc(Oc3ccccc3)cc2)C(=S)N1Cc1ccccc1 (stereo not drawn)
115 to 116 | O=Cc1ccc(CBr)c2ccccc12
148 to 150 | CC(c1ccc2ccccc2c1)N(O)C(=O)NO (stereo not drawn)
164 to 167 | COc1c(Cl)ccc(-c2cc(N)c(Cl)c(C(=O)NOCc3cnc(Cl)s3)n2)c1F
80 to 82 | Cc1ccc(NC(=O)C(C)(C)CCCOc2cc(C)ccc2C)c(C)c1
184 to 185 | O=c1c2ccccc2oc2cccnc12

Second part, the compound before the results:

SMILES | melting point [°C]
Cc1ccc(S(=O)(=O)Nc2ccc3c(=O)c4c(sc3c2)CC(C)(C)CC4)cc1 | 279
Cc1ccc(S(=O)(=O)N2CC3=CC(=O)CC3C2)cc1 (stereo not drawn) | 147 to 149
COc1ccc(-c2nc3ccc(OC(F)(F)F)cc3[nH]2)cc1 | 200 to 202
COc1ccc(C(=O)P2(=O)Oc3ccccc3-c3ccccc32)c(OC)c1 (stereo not drawn) | 112 to 115
CNc1nc(-c2ccc(O)c(F)c2)cc2c(OC)cccc12 | 185 to 187
CCC(=O)N1CCC(NC(=O)Nc2ccc(C(F)(F)F)cc2)CC1 | 224 to 228
COc1ccc(CCc2cc(OC)c(OC)cc2C)cc1OC | 102
Cc1c(-c2ccncc2)sc(-c2ccncc2)c1CF | 148
CC(C)OC1CCC(=O)N1S(=O)(=O)C=Cc1ccccc1 (stereo not drawn) | 92 to 94
O=Cc1c(F)cccc1N1CCN(Cc2ccccc2)CC1 | 94 to 95
COc1cccc(NC(=O)NCc2cccc3c2CN(C2CCC(=O)NC2=O)C3=O)c1 (stereo not drawn) | 340 to 342
c1ccc2[nH]c(SCc3cn4ccccc4n3)nc2c1 | 220 to 222
CC1CC(=O)c2c(nc3c(c2N)c2ccccc2n3C)C1 (stereo not drawn) | 216 to 217
Cc1cccnc1NC(=O)CN1C[C@@H](C)N(c2ncnc3sccc23)[C@@H](C)C1 | 157 to 159
CS(=O)(=O)N1CCC(Nc2nc(Cl)nc(Nc3cccc(C(F)(F)F)c3)n2)CC1 | 220 to 222
CC1CCCN(c2ccc([N+](=O)[O-])cc2C(=O)c2ccc(Cl)cc2)C1 (stereo not drawn) | 112
CCCOCCOC(=O)C1=C(C)NC(C)=C(S(=O)(=O)N(C)CCOC)C1c1cccc([N+](=O)[O-])c1 (stereo not drawn) | 67 to 70
CCCCCCCCc1ccc2nc(N)nc(N)c2c1C | 262 to 264
OCc1cc2c(F)ccc(Br)c2s1 | 80 to 81
Nc1ncc2c(n1)-c1cccnc1CC2 | 220 to 226
CCCCCCOC(=O)COc1ccc(F)c(C(N)=O)c1F | 108
O=C(N[C@H](Cc1ccc(C(F)(F)F)cc1)[C@@H](O)c1ccc(F)cc1)c1ccc(F)cc1 (racemic) | 202 to 203

SMILES | melting point [°C]
CN(C)CCN1C(=O)c2ccc3[nH]c4ccc(O)cc4c3c2C1=O | > 260
[N-]=[N+]=NCC1CN(c2ccc(SC(c3ccccc3)(c3ccccc3)c3ccccc3)c(F)c2)C(=O)O1 (stereo not drawn) | 77 to 79
CC1(C)OC[C@H]([C@@H]2CNC(=O)C2)O1 | 84 to 86
CS(=O)(=O)Nc1nc(CCN2CCC(c3c[nH]c4ccccc34)CC2)cs1 | 141 to 144
Cc1[nH]c(=O)[nH]c1C(=O)c1ccc(F)cc1 | 289 to 292
O=c1ccc(-c2ccc([N+](=O)[O-])c(C(F)(F)F)c2)n[nH]1 | 238 to 241
CC(C)c1cc(N)c(S(N)(=O)=O)cc1S(N)(=O)=O | 185 to 186
CCOC(=O)c1c(=O)c2c(F)c(F)c(F)c(F)c2n2ccccc12 | 198 to 200
Cc1nc2cccc3n(CCCCCNS(=O)(=O)CC(F)(F)F)c(=O)c1n23 | 143 to 145
Cc1nc(N2CCN(Cc3ccc(F)c(F)c3)C2=O)sc1C(N)=O | 221 to 223
Cc1ccc2scc(CCNc3ncnc4c3ncn4C3OC(CO)C(O)C3O)c2c1 (stereo not drawn) | 158 to 160
O=C(O)CC(=Cc1ccccc1)C(=O)O | 114
Cc1ccc(S(=O)(=O)c2cc3c(c(S(=O)(=O)NCCc4ccccc4F)c2)CCCC3)cc1 | 55 to 60
CCOC(=O)c1sc(SC(C)C)c2c1CCC(NC(C)=O)C2=O (stereo not drawn) | 170 to 171
CC(C)CC1(CCCCN2CCN(c3ccccn3)CC2)C(=O)Nc2ccccc21 (stereo not drawn) | 158 to 159
CC(C)(C)OC(=O)n1[nH]c2c(cnc3c([N+](=O)[O-])cccc32)c1=O | > 250
Cc1cc2c(c3occ(-c4ccc(C(C)C)cc4)c13)CCC2 | 70 to 72
O=C1CCN2C(=O)c3cccc(NC(=O)Nc4ccccn4)c3C2C1 (stereo not drawn) | 254
Nc1cc(-c2ccc(Cl)c(Cl)c2)[nH]n1 | 169 to 170
CC1=C(C(=O)Nc2cc(C(=O)OC(C)C)ccc2F)SCCO1 | 132 to 135
C=Cc1c(F)c(F)cc2c(=O)c(C(=O)O)cn(C3CC3)c12 | 183 to 188
Cc1ccc(C(=O)c2noc(CC#N)n2)cc1 | 76 to 78

SMILES | melting point [°C]
NCCCNc1nc2c(NCc3ccccc3)ncnc2n1C1OC(CO)C(O)C1O (stereo not drawn) | 72 to 76
CC(Cn1ccc(C(F)(F)F)n1)n1nnc2cc3c(=O)n(C(C)Cn4ncnn4)nnc3cc2c1=O (stereo not drawn) | 95 to 97
CC(C)(C)OC(=O)N1CCC(CCN2C(=O)C3(COc4cc5c(cc43)OCO5)c3ccccc32)CC1 (stereo not drawn) | 173 to 175
NS(=O)(=O)c1ccc(CCC(=O)O)cc1 | 97 to 99
CNS(=O)(=O)c1cscc1CCl | 75 to 76
CSc1c(C#N)nn(-c2c(Cl)cc(C(F)(F)F)cc2Cl)c1N(C)C | 118 to 119
Cc1ccc(NC(=O)c2ccc(CN3CCNC(C(N)=O)C3)c(C(F)(F)F)c2)cc1Nc1nccc(-c2cncnc2)n1 (stereo not drawn) | 235 to 238
O=C(Nc1ccc2c(c1)OC(F)(F)O2)N1CC(c2ccc(Cl)cc2)=C(c2ccc(Cl)cc2)N1 | 150 to 155
CCOC(=O)C1=C(N)NC(C)=C(C(C)=O)C1c1cccc([N+](=O)[O-])c1 (stereo not drawn) | 217
Cc1cc(C)cc(COC2CCCCC2(N)c2ccccc2)c1 (stereo not drawn) | 75 to 78
CC1C(=O)Oc2cc(N3CCCCCC3)ccc21 (stereo not drawn) | 57 to 59
O=C1Cc2cc(C(=O)CCl)ccc2N1 | 236 to 239
COc1ccc2c(c1OC(C)=O)NC(O)C1CCCN1C2=O (stereo not drawn) | 144 to 146
O=C(Cc1ccncc1)NC(Cc1csc2ccccc12)C(=O)CCc1cc(C(F)(F)F)cc(C(F)(F)F)c1 (stereo not drawn) | 184 to 187
CCOC(=O)C(NC(C)=O)c1csc(NC(C)=O)n1 (stereo not drawn) | 149 to 150
CCCNC(=O)Nc1ccc2c(c1)NC(=O)C2(C)C | 223 to 225
CC(C)c1nc(C(C)C)c(CN2CCOCC2)c(-c2ccc(F)cc2)c1CO | 93.5 to 95.5
CC12CCC(=O)C=C1CCC1C2CCC2(C)C(c3cccnc3)=CCC12 (stereo not drawn) | 148 to 150
Nc1ccc(-n2ccn(CCCC3CCCCC3)c2=O)cc1 | 83 to 85
CCn1c(=O)c2nc(-c3ccc(/C=C/C(=O)O)cc3)[nH]c2n(CC)c1=O | > 360
CC12CC(=O)C3C(CCC4CC(O)CCC43C)C1CCC2C(=O)CBr (stereo not drawn) | 160 to 163
CN(C)c1nc(-c2ccccc2O)cs1 | 201 to 204
